One data set has as its system Amaranthus retroflexus. As to the kind of experiment: greenhouse post-emergence herbicidal test. Particulars: Amaranthus retroflexus (pig weed), application rates of 0.25 or 0.125 kg/ha, 2 to 4 weeks. The format is in vivo. From the text:
(§1) The cultivation containers used were plastic pots containing loamy sand with approximately 3.0% of humus as the substrate. The seeds of the test plants were sown separately for each species.
(§2) For the post-emergence treatment, the test plants were first grown to a height of from 3 to 15 cm, depending on the plant habit, and only then treated with the active compounds which had been suspended or emulsified in water. The test plants were for this purpose either sown directly and grown in the same containers, or they were first grown separately as seedlings and transplanted into the test containers a few days prior to treatment. The application rate for the post-emergence treatment was 0.25 or 0.125 kg of a.s. (active substance)/ha.
(§3) Depending on the species, the plants were kept at 10-25° C. or 20-35° C. The test period extended over from 2 to 4 weeks. During this time, the plants were tended, and their response to the individual treatments was evaluated.
(§4) The evaluation was carried out using a scale from 0 to 100. 100 means no emergence of the plants, or complete destruction of at least the aerial parts and 0 means no damage, or normal course of growth.
(§5) The plants used in the greenhouse experiments were of the following species: […]

Another data set concerns Avena fatua. As to the kind of experiment: greenhouse post-emergence herbicidal test. Particulars: Avena fatua (wild oat), application rates of 0.25 or 0.125 kg/ha, 2 to 4 weeks. The format is in vivo.
Text: as §1, §2, §3, §4, §5

Another data set deals with Chenopodium album. Kind of data set: greenhouse post-emergence herbicidal test. The format is in vivo. Particulars: Chenopodium album (lambsquaters), application rates of 0.25 or 0.125 kg/ha, 2 to 4 weeks.
Text: as §1, §2, §3, §4, §5

A further data set deals with Echinochloa crus galli. As to the kind of experiment: greenhouse post-emergence herbicidal test. The format is in vivo. Particulars: Echinochloa crus galli (barnyardgrass), application rates of 0.25 or 0.125 kg/ha, 2 to 4 weeks.
Text: as §1, §2, §3, §4, §5

For another data set, the system named is Polygonum persicaria. Kind of data set: greenhouse post-emergence herbicidal test. The format is in vivo. Particulars: Polygonum persicaria (ladysthumb), application rates of 0.25 or 0.125 kg/ha, 2 to 4 weeks.
Text: as §1, §2, §3, §4, §5

A further data set relates to Setaria faberi. As to the kind of experiment: greenhouse post-emergence herbicidal test. Particulars: Setaria faberi (giant foxtail), application rates of 0.25 or 0.125 kg/ha, 2 to 4 weeks. The format is in vivo.
Text: as §1, §2, §3, §4, §5

Here are results for eleven compounds from patent publication US6627581B1, “Cyclopropyl-anellated 3-(4,5-dihydroisoxazol-3-yl)-substituted benzoylpyrazoles” (BASF Aktiengesellschaft, priority 1999, dated 2003).

Take `Cc1c(C(=O)c2cnn(C(C)C)c2O)ccc(S(C)(=O)=O)c1C1=NOC2CC12C` (centres unmarked) [Compound 2.14]: the melting point fell in the range of 75 to 80 °C.

As to `Cc1c(C(=O)c2cnn(C(C)(C)C)c2O)ccc(S(C)(=O)=O)c1C1=NOC2CC12C` (centres unmarked) [Compound 2.16], the melting point was in the range of 110 to 115 °C.

The compound `CCn1ncc(C(=O)c2ccc(S(C)(=O)=O)c(C3=NOC4CC34)c2C)c1O` (centres unmarked) [Compound 2.2] had a melting point of 94 to 97 °C.

The compound `Cc1c(C(=O)c2cnn(C(C)C)c2O)ccc(S(C)(=O)=O)c1C1=NOC2(C)CC12` (centres unmarked) [Compound 2.11] displayed a melting point of 67 to 70 °C.

As to `Cc1c(C(=O)c2cnn(C)c2O)ccc(S(C)(=O)=O)c1C1=NOC2CC12` (centres unmarked) [Compound 2.3, 4-[2-Methyl-3-(2-oxa-3-azabicyclo[3.1.0]hex-3-en-4-yl)-4-methyl-sulfonylbenzoyl]-5-hydroxy-1-methyl-1H-pyrazole], the melting point was in the range of 106 to 112 °C.

As for `Cc1c(C(=O)c2cnn(C(C)C)c2O)ccc(S(C)(=O)=O)c1C1=NOC2CC12` (centres unmarked) [Compound 2.4], the melting point is 90 to 95 °C.

With `Cc1nn(C)c(O)c1C(=O)c1ccc(S(C)(=O)=O)c(C2=NOC3CC23)c1C` (centres unmarked) [Compound 2.5], the melting point lay within 89 to 91 °C. In addition, the post-emergence action result with Amaranthus retroflexus is “very good”. In the data set on Avena fatua, the post-emergence action entry is reported as “very good”. In addition, the post-emergence action result in the data set on Chenopodium album is listed as “very good”. Besides, in the data set with Echinochloa crus galli, the post-emergence action entry is “very good”. For the same compound, the post-emergence action entry in the data set on Polygonum persicaria was “very good”. Further, the post-emergence action entry in the data set on Setaria faberi is given as “very good”.

In turn, `Cc1c(C(=O)c2cnn(C)c2O)ccc(S(C)(=O)=O)c1C1=NOC2CC12C` (centres unmarked) [Compound 2.13] gave a melting point of 99 to 103 °C.

The compound `Cc1c(C(=O)c2cnn(C(C)(C)C)c2O)ccc(S(C)(=O)=O)c1C1=NOC2(C)CC12` (centres unmarked) [Compound 2.10] came in with a melting point of 90 to 95 °C.

`Cc1c(C(=O)c2cnn(C)c2O)ccc(S(C)(=O)=O)c1C1=NOC2(C)CC12` (centres unmarked) [Compound 2.7] showed a melting point of 98 to 102 °C.

Compound `Cc1c(C(=O)c2cnn(C(C)(C)C)c2O)ccc(S(C)(=O)=O)c1C1=NOC2CC12` (centres unmarked) [Compound 2.1, 4-[2-Methyl-3-(2-oxa-3-aza-bicyclo[3.1.0]hex-3-en-4-yl)-4-methylsulfonylbenzoyl]-5-hydroxy-1-tert-butyl-1H-pyrazole] showed a melting point of 69 to 74 °C.

As usually defined, the melting point is the temperature of the solid-liquid transition.
